These results are taken from PMC9499525, “Tissue-restricted inhibition of mTOR using chemical genetics” (Proceedings of the National Academy of Sciences of the …, 2022).

Series [1] deals with T1, FKBP12 V55G-HA / GST-mTOR FRB domain ternary complex (Homo sapiens, UniProt P42345+P62942, V56G).
T1 construct: recombinant HA-tagged wild-type or V55G mutant FKBP12 with GST-tagged mTOR FRB domain; 8xHis (cleaved yes); made in house; host or cells: E. coli BL21 (DE3) for FKBP12
The series can be described thus: TR-FRET ternary complex formation, FKBP12 V55G with mTOR FRB. In kind it is binding. The note with it: FKBP12 V55G + mTOR FRB, n = 3, read-out: EC50 of ternary complex induction, FKBP12 V55G. On the procedure:
TR-FRET assay was performed using recommended conditions from Cisbio with slight modifications. FKBP12-HA, FKBP12 V55G-HA, and GST-mTORFRB recombinant proteins were each diluted to 5 nM in assay buffer (20 mM HEPES pH 7.5, 150 mM NaCl, 0.05% Tween-20, 0.1% bovine serum albumin [BSA], 0.5 mM dithiothreitol [DTT]). Anti-GST-Tb (Cisbio) and Anti-HA-XL665 (Cisbio) were diluted to 0.625 µg/mL and 5 µg/mL, respectively, in assay buffer. Rapa* compounds and FK506 were diluted to 50 µM and rapamycin to 5 µM in assay buffer containing 5% DMSO, and threefold serial dilution series were made from these solutions. We mixed 4 µL diluted FKBP12-HA protein, 4 µL diluted GST-mTORFRB, and 4 µL of compound or DMSO control in a well of a black low-volume 384-well plate (Corning 4514), and the mixture was incubated at room temperature for 1 h. We then added 4 µL of Anti-GST-Tb, and 4 µL Anti-HA-XL665, and the mixture was incubated at room temperature for an additional 1 h. Time-resolved fluorescence was read on a Tecan Spark 20M plate reader with the following parameters: Lag time: 60 µs; Integration time: 500 µs; Read A: Excitation filter 320 ([25]) nm, Emission filter 610 ([25]) nm, Gain 130; Read B: Excitation filter 320 ([25]) nm, Emission filter 665 ([8]) nm, Gain 165. Three replicates were performed for each assay condition. […]
Human FKBP12 coding sequence was cloned a pET-47b bacterial expression vector using Gibson assembly and a C-terminal HA-tag was added by QuickChange PCR. FKBP12 proteins were expressed as 8xHis fusions in E. coli BL21 (DE3) cells. […] Samples were then purified by size exclusion chromatography, concentrated to 10-20 mg/mL, and snap frozen in liquid nitrogen. pGEX-2T FRB was a gift from Jie Chen (Addgene plasmid #26607). mTOR FRB was expressed as a GST-fusion and purified as previously described (1). […]
PAMPA was performed by Quintara Discovery as described previously (2). Compounds were analyzed at 100 µM in PBS and measured using liquid chromatography-mass spectrometry (LC-MS) after 5 hours. […] Compounds were analyzed at 10 µM and measured by LC-MS after 1 hour.
(Time-resolved FRET reads energy transfer from a long-lived donor to a nearby acceptor.)

A short description of series [2]: PAMPA membrane permeability. In kind it is in vitro ADME. The following applies: 100 µM in PBS, LC-MS. On the procedure:
PAMPA and Caco-2 membrane permeability assays
PAMPA was performed by Quintara Discovery as described previously (2). Compounds were
analyzed at 100 µM in PBS and measured using liquid chromatography-mass spectrometry (LC-

Series [3] relates to S. cerevisiae BY4741 fpr1-KO expressing human FKBP12 variants. The series can be described thus: Yeast disk diffusion growth inhibition assay. The class given is cell-based, Saccharomyces cerevisiae. The note with it: 100 µM on disk, 3 d. The text has this:
BY4741 fpr1::URA3 yeast were generated by homologous recombination, selected on Ura- synthetic complete medium and subsequently grown in yeast extract-peptone-dextrose (YPD) medium ([46]). Human FKBP12 coding sequence was cloned via Gibson assembly into a pCH043 yeast expression vector, which had been previously modified with an HIS3 selection open reading frame (ORF). The C-terminal HA-tag and F46/V55 mutations were introduced by site-directed mutagenesis PCR. Plasmids were transformed into the BY4741 fpr1::URA3 strain and selected on His- synthetic complete medium. Isolated strains were verified by plasmid sequencing. To prepare yeast protein lysates, 2 optical density (OD) equivalents from an overnight culture was resuspended in 200 µl 0.1 M NaOH and incubated at room temperature for 15 min. Cells were pelleted, resuspended in 50 µL 2x SDS loading dye, and heated at 95 °C for 5 min. Following centrifugation at 20,000 × g for 10 min, supernatant was saved for analysis.
Yeast strains containing FKBP12-expression vectors were shaken overnight at 30 °C in 3 mL His- synthetic complete media. 0.1 OD of culture was spun down, resuspended in 1 mL sterile water, and 100 µL was spread on His-synthetic media containing galactose/raffinose to induce protein expression. Plates were incubated at 30 °C for 1 h to dry. Filter paper circles were prepared with a hole punch, placed on the plate, and 5 µL of DMSO, 100 µM rapamycin, or 100 µM Rapa* compound was pipetted onto the filter paper. Plates were incubated at 30 °C for 3 d before zones of growth inhibition were measured.

Series [4] can be described thus: Bidirectional Caco-2 cell permeability. The note with it: human, LC-MS. In kind it is in vitro ADME. On the procedure: PAMPA and Caco-2 membrane permeability assays […]
MS) after 5 hours. Bidirectional Caco-2 cell permeability assay was performed by Quintara
Discovery. Compounds were analyzed at 10 µM and measured by LC-MS after 1 hour.

T1 sequence (P62942 whole entry V56G, the tested form may be a part): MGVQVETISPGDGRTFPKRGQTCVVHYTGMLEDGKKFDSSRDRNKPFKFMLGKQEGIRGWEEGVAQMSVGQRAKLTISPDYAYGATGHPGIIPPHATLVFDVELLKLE
T1 sequence (P42345 2012-2144 limits assumed): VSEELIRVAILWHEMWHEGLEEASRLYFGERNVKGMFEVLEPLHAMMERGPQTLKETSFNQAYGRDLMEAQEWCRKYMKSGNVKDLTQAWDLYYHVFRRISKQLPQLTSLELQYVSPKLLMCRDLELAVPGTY

In general, EC50 refers to the concentration at which the effect is half-maximal. A word on the Papp: it is the rate of passage across a membrane or cell layer, normalised by area and donor concentration. A low value points to poor permeation. Broadly, the Papp A→B is how fast a substance crosses the layer from the apical side. Read a low Papp A→B as poor permeation. The Papp B→A is the apparent permeability from the basolateral to the apical side of a cell layer. Take `CCO/N=C1/C[C@@H]([C@H](C)C[C@@H]2CC[C@@H](O)[C@H](OC)C2)OC(=O)[C@@H]2CCCCN2C(=O)C(=O)[C@]2(O)O[C@@H](CC[C@H]2C)C[C@H](OC)/C(C)=C/C=C/C=C/[C@@H](C)C[C@@H](C)C(=O)[C@H](OC)[C@H](O)/C(C)=C/[C@H]1C` [Rapa*-3Z]: the EC50 in series [1] was 11.8 nM. The Papp at 5 h, 100 µM in series [2] turned out to be 0.053 ×10⁻⁶ cm/s. Further, in series [3], the “Growth inhibition of yeast expressing FKBP12 V55G” value is reported as “displayed the highest level of inhibition”. In addition, in series [4], the Papp A→B at 1 h, 10 µM is under 0.5 ×10⁻⁶ cm/s and the Papp B→A at 1 h, 10 µM worked out at 1 ×10⁻⁶ cm/s.
